Results reported in patent EP0009655A1, “6-Amino substituted N-pyrrolyl-3-pyridazine amines, their preparation, and pharmaceutically antihypertensive compositions containing them” (priority 1978, dated 1980).

Tests used:
renal hypertensive dogs = assay: Antihypertensive activity in conscious renal hypertensive dogs (systolic arterial blood pressure, indirect method on the tail); format: in vivo; details: for maximum systolic blood pressure drop / time of maximum systolic blood pressure drop / blood pressure drop after seven hours: dose of 2 mg/kg; for blood pressure drop after seven hours: seven hours after administration
Procedure: The antihypertensive activity of the compounds of the invention was shown in representative tests on spontaneous hypertensive rats and in renal hypertensive dogs. In representative experiments with renal hypertensive dogs, effective amounts(1 to 4 mg/kg) of compounds of examples 3, 4, 5, 6, 8, 13, 14 and 15 were administered p.o. to the conscious hypertensive animals. The systolic arterial blood pressure was measured by the indirect method on the tail before and 1, 3, 5 and 7 hours after treatment.
The drop of the systolic blood pressure ranged between 20 and 70 mm Hg, depending on the specific compound tested and on the time at which the blood pressure was observed. In general the antihypertensive effect started about 3 hours after treatment and the maximum effect was still persistent 7 hours after treatment.

[1] = tested on: spontaneous hypertensive rats (MHR: Milano hypertensive rats); assay: Antihypertensive activity in spontaneous hypertensive rats (systolic blood pressure); format: in vivo; details: dose of 5 mg/kg
[2] = Acute toxicity, LD50 p.o.; details: mouse, in vivo, po

Row | Structure (SMILES) | drop of the systolic blood pressure (renal hypertensive dogs; 1 mg/kg p.o.) [mm Hg] | drop of the systolic blood pressure (renal hypertensive dogs; 4 mg/kg p.o.) [mm Hg] | maximum systolic blood pressure drop (renal hypertensive dogs) [mm Hg] | time of maximum systolic blood pressure drop (renal hypertensive dogs) | blood pressure drop after seven hours (renal hypertensive dogs) [mm Hg] | blood pressure drop [1] [mm Hg] | LD50 [2] [mg/kg]
1 | Cc1ccc(C)n1Nc1ccc(N2CCOCC2)nn1 [Example 3, N-(2,5-Dimethyl-1H-pyrrol-1-yl)-6-morpholino-3-pyridazineamine] | 50 | 70 | 52 | about three | 48 | 38 | ~800
2 | NNc1nncc2ccccc12 [hydralazine, 1-hydrazinophthalazine, reference compound] |  |  | 41 | about one | 29 |  | 
